{
  "source": "ChEMBL document CHEMBL1144329",
  "about": "“De novo design, synthesis, and in vitro activity of LFA-1 antagonists based on a bicyclic[5.5]hydantoin scaffold” (Bioorg Med Chem Lett, 2005)",
  "data": [
    {"biological_target": "Intercellular adhesion molecule (ICAM-1), Integrin alpha-L/beta-2 (Homo sapiens, UniProt P05107+P20701)", "sequence (P20701 whole entry)": "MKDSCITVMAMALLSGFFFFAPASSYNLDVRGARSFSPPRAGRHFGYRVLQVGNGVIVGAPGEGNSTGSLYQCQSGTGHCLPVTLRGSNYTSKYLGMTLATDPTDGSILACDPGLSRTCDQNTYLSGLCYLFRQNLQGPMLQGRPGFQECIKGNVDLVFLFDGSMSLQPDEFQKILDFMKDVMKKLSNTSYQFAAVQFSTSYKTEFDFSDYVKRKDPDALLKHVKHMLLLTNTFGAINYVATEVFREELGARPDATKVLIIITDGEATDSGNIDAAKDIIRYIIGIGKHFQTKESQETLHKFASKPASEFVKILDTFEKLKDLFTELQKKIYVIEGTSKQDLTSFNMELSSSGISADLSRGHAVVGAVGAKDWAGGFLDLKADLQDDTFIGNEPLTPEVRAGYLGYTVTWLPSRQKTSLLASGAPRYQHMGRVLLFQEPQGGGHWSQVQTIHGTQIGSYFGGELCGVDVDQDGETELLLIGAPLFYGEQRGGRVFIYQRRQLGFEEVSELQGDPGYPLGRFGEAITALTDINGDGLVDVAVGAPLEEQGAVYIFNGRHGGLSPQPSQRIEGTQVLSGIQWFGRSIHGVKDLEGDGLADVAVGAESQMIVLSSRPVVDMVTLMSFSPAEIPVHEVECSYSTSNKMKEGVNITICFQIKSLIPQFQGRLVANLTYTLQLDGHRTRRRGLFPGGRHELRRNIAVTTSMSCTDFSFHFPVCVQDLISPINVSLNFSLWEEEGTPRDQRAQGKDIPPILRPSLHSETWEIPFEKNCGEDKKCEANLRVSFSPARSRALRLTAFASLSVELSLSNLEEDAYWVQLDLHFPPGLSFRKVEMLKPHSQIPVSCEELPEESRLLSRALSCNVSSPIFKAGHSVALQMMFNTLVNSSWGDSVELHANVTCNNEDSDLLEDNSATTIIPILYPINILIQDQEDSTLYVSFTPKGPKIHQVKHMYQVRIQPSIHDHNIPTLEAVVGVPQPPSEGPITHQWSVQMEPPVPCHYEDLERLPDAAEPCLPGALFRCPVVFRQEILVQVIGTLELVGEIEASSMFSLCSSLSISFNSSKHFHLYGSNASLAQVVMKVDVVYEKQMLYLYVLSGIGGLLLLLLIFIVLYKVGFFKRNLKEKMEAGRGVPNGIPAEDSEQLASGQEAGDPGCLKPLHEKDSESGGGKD", "sequence (P05362 whole entry, further chain)": "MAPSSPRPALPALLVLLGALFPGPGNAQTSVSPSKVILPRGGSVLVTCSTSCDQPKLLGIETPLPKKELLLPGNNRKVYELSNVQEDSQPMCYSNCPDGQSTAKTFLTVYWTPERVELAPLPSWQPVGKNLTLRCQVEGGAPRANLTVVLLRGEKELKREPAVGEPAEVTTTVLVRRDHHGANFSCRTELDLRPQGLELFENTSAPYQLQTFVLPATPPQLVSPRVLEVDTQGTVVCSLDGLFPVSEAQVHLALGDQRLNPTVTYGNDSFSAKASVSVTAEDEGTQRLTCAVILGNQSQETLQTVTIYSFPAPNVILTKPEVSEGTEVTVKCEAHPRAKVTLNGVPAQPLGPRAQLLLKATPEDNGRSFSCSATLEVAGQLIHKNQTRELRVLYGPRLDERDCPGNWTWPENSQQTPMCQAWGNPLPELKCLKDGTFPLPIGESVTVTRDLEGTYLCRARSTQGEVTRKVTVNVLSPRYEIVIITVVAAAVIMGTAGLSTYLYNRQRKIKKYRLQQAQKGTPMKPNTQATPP", "sequence (P05107 whole entry)": "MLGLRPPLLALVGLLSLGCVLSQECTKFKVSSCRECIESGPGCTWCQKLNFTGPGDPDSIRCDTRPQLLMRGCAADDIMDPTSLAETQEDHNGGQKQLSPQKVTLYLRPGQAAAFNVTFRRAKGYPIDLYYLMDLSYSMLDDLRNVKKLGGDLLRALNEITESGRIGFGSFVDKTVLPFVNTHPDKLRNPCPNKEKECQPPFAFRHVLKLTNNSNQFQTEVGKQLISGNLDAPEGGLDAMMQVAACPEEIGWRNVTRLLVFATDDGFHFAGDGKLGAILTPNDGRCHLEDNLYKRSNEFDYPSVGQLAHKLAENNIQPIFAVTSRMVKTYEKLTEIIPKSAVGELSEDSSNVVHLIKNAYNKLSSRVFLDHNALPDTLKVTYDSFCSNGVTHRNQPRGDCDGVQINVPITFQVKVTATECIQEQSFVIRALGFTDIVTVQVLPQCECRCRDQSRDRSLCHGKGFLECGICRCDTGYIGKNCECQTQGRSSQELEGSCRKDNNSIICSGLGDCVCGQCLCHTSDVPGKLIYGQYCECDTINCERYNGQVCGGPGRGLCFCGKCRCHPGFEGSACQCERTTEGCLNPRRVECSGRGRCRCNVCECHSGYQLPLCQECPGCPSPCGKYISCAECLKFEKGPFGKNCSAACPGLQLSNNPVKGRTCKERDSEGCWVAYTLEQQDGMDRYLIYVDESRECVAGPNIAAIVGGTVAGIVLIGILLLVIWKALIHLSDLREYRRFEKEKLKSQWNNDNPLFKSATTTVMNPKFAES", "experiment": "Inhibitory concentration against leukocyte function-associated antigen-1 in HSB-2 human lymphoblast and H1HeLa cell adhesion assay", "assay_type": "functional, cell-based, H1-HeLa", "units": {"IC50": "nM"}, "values": [
      {"smiles": "O=C1[C@H]2C[C@@H](OCc3cccc(-c4ccc(Cl)cc4)c3)CN2C(=O)N1c1cc(Cl)cc(Cl)c1", "IC50": 620},
      {"smiles": "O=C1[C@@H]2C[C@H](SCc3cccc(-c4ccc(Br)cc4)c3)CN2C(=O)N1c1cc(Cl)cc(Cl)c1", "IC50": 290},
      {"smiles": "CCN(Cc1cccc(-c2ccc(C#N)cc2)c1)[C@H]1C[C@H]2C(=O)N(c3cc(Cl)cc(Cl)c3)C(=O)N2C1", "IC50": 730},
      {"smiles": "O=C1[C@@H]2C[C@H](OCc3cccc(-c4ccc(Br)cc4)c3)CN2C(=O)N1c1cc(Cl)cc(Cl)c1", "IC50": 85},
      {"smiles": "O=C1[C@@H]2C[C@H](OCc3cccc(-c4cccc(Br)c4)c3)CN2C(=O)N1c1cc(Cl)cc(Cl)c1", "IC50": 755},
      {"smiles": "N#Cc1ccc(-c2cccc(CO[C@H]3C[C@H]4C(=O)N(c5cc(Cl)cc(Cl)c5)C(=O)N4C3)c2)cc1", "IC50": 270},
      {"smiles": "O=C1[C@@H]2C[C@@H](OCc3cccc(-c4ccc(Br)cc4)c3)CN2C(=O)N1c1cc(Cl)cc(Cl)c1", "IC50": 935},
      {"smiles": "O=C1[C@@H]2C[C@H](Oc3ccc(-c4ccc(Br)cc4)cc3)CN2C(=O)N1c1cc(Cl)cc(Cl)c1", "IC50": 480},
      {"smiles": "CN(Cc1cccc(-c2ccc(Br)cc2)c1)[C@H]1C[C@H]2C(=O)N(c3cc(Cl)cc(Cl)c3)C(=O)N2C1", "IC50": 175},
      {"smiles": "O=C1[C@H]2C[C@@H](OCc3cccc(-c4ccc(Br)cc4)c3)CN2C(=O)N1c1cc(Cl)cc(Cl)c1", "IC50": 275},
      {"smiles": "N#Cc1ccc(-c2cccc(CN[C@H]3C[C@H]4C(=O)N(c5cc(Cl)cc(Cl)c5)C(=O)N4C3)c2)cc1", "IC50": 175}
    ]}
  ]
}
